“Also recorded” adds a separate entry of the source.
How the values were obtained:
PKCζ = target: T1, PKCζ (Homo sapiens, UniProt Q05513); test: Activation of PKCζ (immunoblotting for p-PKCζ); type: cell-based; conditions: PC-3U cells
T1 construct: Cell lysates from PC-3U cells treated with TGFβ or TPA were subjected to immunoblotting with an antiserum against pPKCζ; endogenous in cells; host or cells: PC-3U (human prostate cancer cell line)
T1 sequence (Q05513 1-592): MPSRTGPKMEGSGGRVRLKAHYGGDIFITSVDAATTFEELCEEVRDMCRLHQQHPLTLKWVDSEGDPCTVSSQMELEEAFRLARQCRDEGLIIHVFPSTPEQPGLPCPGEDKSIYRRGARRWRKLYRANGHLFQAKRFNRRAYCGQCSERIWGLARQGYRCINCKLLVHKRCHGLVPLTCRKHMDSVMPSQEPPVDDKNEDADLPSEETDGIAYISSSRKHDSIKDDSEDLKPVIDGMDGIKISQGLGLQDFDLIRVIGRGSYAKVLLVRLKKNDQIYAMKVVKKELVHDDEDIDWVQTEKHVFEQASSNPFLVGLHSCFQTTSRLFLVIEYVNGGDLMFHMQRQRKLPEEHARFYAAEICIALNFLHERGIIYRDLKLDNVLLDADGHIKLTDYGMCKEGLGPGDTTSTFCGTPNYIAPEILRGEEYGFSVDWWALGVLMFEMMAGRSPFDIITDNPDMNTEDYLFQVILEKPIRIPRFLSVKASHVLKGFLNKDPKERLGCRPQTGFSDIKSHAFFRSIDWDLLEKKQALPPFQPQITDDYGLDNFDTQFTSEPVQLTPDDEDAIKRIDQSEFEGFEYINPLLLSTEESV
Description: (§1) Cells were starved for 12-18 h and then stimulated with TGFβ for the indicated time periods, washed twice in ice-cold PBS, and lysed in ice-cold lysis buffer (150 mM NaCl, 50 mM Tris pH 8.0, 0.5% (v/v) deoxycholate, 1% (v/v) NP40, 10% (v/v) glycerol, 1 mM aprotinin, 1 mM Pefabloc and 2 mM sodium orthovanadate). After centrifugation, supernatants were collected and protein concentrations were determined using the bicinchoninic acid (BCA) protein measurement kit (Nordic Biolabs). Equal volumes were subjected to immunoprecipitation. Equal amounts of protein from total cell lysates and immunoprecipitations were subjected to electrophoresis on 6%, 10%, 12%, or 4-12% gradient SDS-polyacrylamide gels (SDS-PAGE), blotted on to polyvinylidine difluoride membranes, and subjected to immunoblotting, as previously described.^23 The […] cell lysate from Santa Cruz was used as a positive control for TβRI. The ubiquitination assays, immunofluorescence assays, and transient transfections were performed as previously described.^5,23,24 Photomicrographs were obtained with a Zeiss 510 Meta (Carl Zeiss Microimaging, Inc.) equipped with a digital camera (RET-EXi-F-M-12-C) from Q-imaging.

TβRI ICD = test: Nuclear accumulation of TβRI ICD (immunofluorescence, nuclear fractionation); type: cell-based, human
Description: Before TGF-β1 stimulation, the cells were starved for 12-18 h in medium supplemented with 1% FBS. In all assays, the cells were stimulated with 10 ng/ml TGFβ1 (R&D System, UK).
(§2) Protein-G Sepharose was obtained from GE Healthcare.; LumiLight Western blotting substrate and Pefabloc were from Roche, PageRuler prestained protein ladder was from Fermentas; and TAPI-2 was from BIOMOL Research Laboratories Inc. TAPI-2 was used at concentrations of 10-20 μM. The p38α/β inhibitor (SB203580) was purchased from Calbiochem (it was used at a concentration of 10 μM). PKCζ pseudosubstrate was from TOCRIS Bioscience and used at concentrations of 10-50 μM. The PKCζ activator, phorbol 12-myristate 13-acetate (PMA, referred to as TPA in our paper), and a TβRI inhibitor (SB505124) were purchased from Sigma. The SB505124 inhibitor was used at a concentration of 10 μM and the TPA at a concentration of 100 nM. The general PKCζ inhibitor, GF109203X, was purchased from Sigma. All inhibitors were added to cells 1 h before TGFβ stimulation.
as §1, with “The ubiquitination assays, immunofluorescence assays, and transient transfections were performed as previously described.^5,23,24 Photomicrographs were obtained with a Zeiss 510 Meta (Carl Zeiss Microimaging, Inc.) equipped with a digital camera (RET-EXi-F-M-12-C) from Q-imaging.” left out

TβRI = test: Formation of TβRI ICD (immunoblotting of cell lysates); type: cell-based, human; conditions: PC-3U cells
Description: as §2
Cells were starved for 12-18 h and then stimulated with TGFβ for the indicated time periods, washed twice in ice-cold PBS, and lysed in ice-cold lysis buffer (150 mM NaCl, 50 mM Tris pH 8.0, 0.5% (v/v) deoxycholate, 1% (v/v) NP40, 10% (v/v) glycerol, 1 mM aprotinin, 1 mM Pefabloc and 2 mM sodium orthovanadate). After centrifugation, supernatants were collected and protein concentrations were determined using the bicinchoninic acid (BCA) protein measurement kit (Nordic Biolabs). Equal volumes were subjected to immunoprecipitation. […]

PC-3U cells = test: CytoSelect cell invasion assay, PC-3U; type: cell-based, human
Description: (§3) Invasion assays were performed using the CytoSelect Cell Invasion Assay (Cell Biolabs, Inc., San Diego, Calif.). Briefly, the basement membrane layer of the cell culture inserts were rehydrated in 300 μl serum-free RPMI-1640 and 2×10^6 cells were seeded into the upper sections of the chambers in serum-free RPMI-1640 with or without TGFβ. The lower wells of the invasion plates were filled with 500 μl RPMI supplemented with 10% FBS. Non-invasive cells were removed from the upper chamber and invasive cells were stained with crystal violet cell stain solution. Invasive cells were photographed with a Leica DMR light microscope. Colorimetric quantification was performed by transferring inserts into 200 μl of extraction solution for 10 min and then, transferring to a 96-well microtiter plate. The OD at 560 nm was determined with a plate reader (Supplementary Information FIG. S5a).
The cancer cell invasion assay described in Example 1 above was performed to examine the ability of γ-secretase inhibitors in suppressing cancel cell invasion. Prostate cancers cells PC-3U, human lung carcinoma cells A549, and human breast carcinoma cells MDA-MB-231 were cultured following routine procedures, treated with TGFβ in the presence of absence of L-685,458, a γ-secretase inhibitor. Cells were visualized by staining with a crystal violet cell staining solution. […]

MDA-MB-231 cells = test: CytoSelect cell invasion assay, MDA-MB-231; type: cell-based, human
Description: as §3
(§4) The cancer cell invasion assay described in Example 1 above was performed to examine the ability of γ-secretase inhibitors in suppressing cancel cell invasion. Prostate cancers cells PC-3U, human lung carcinoma cells A549, and human breast carcinoma cells MDA-MB-231 were cultured following routine procedures, treated with TGFβ in the presence of absence of L-685,458, a γ-secretase inhibitor. Cells were visualized by staining with a crystal violet cell staining solution.

A549 cells = test: CytoSelect cell invasion assay, A549; type: cell-based, human
Description: as §3, §4

phorbol 12-myristate 13-acetate [TPA] was tested, and the “activation of PKCζ (p-PKCζ)” value (PKCζ) was “activated”, the “ICD in the nuclear fraction” value (TβRI ICD; HA-caTβRI-expressing PC-3U cells treated with TPA) was “accumulated in the nuclear fraction” and the “nuclear accumulation of endogenous TβRI ICD, immunofluorescence” value (TβRI ICD; PC-3U cells treated with TPA alone, 6 h) was “led to nuclear accumulation”.
With `Cc1cccc(-c2[nH]c(C(C)(C)C)nc2-c2ccc3c(c2)OCO3)n1` [SB505124] the “formation of the TβRI ICD” value (TβRI) was “no major effect”.
With `CC(C)C[C@H](NC(=O)[C@H](Cc1ccccc1)C[C@@H](O)[C@H](Cc1ccccc1)NC(=O)OC(C)(C)C)C(=O)N[C@@H](Cc1ccccc1)C(N)=O` [L-685,458] the “TGFβ-induced cancer cell invasion” value (PC-3U cells) was “significantly suppressed”, the “TGFβ-induced cancer cell invasion” value (MDA-MB-231 cells) was “significantly suppressed” and the “TGFβ-induced cancer cell invasion” value (A549 cells) was “significantly suppressed”.
With `CC(C)C[C@H](CC(=O)NO)C(=O)N[C@H](C(=O)N[C@@H](C)C(=O)NCCN)C(C)(C)C` [TAPI-2] the “nuclear translocation/accumulation of TβRI ICD in response to TGFβ stimulation” value (TβRI ICD; PC-3U cells, TGFβ, inhibitor added 1 h before TGFβ, V22 antibody) was “reduction; also recorded: partly prevented”.
